Patent US11286414B2, “Sodium nitroprusside and nitrate metabolic inhibition of sulfate-reducing microbes to control sulfide production” (UTI Limited Partnership, priority 2017, dated 2022)

Tests used:
4PW SRB consortia = test: Comparison of SNP with other biocides on souring; type: cell-based, SRB consortia enriched from 4PW; conditions: 10 ppm added at start of growth, one month
SRB consortia = test: Souring control in sand-packed bioreactors containing heavy oil; type: cell-based, SRB consortia from MHGC produced water (18PW)

O=CCCCC=O [Glut, glutaraldehyde]
metabolic activity and growth of SRB (sulfide, sulfate, lactate concentrations) (4PW SRB consortia): not effective at this low dosage

O=[N+]([O-])[O-].[Na+] [nitrate, sodium nitrate]
effect on sulfide concentration in the effluent (SRB consortia; injection of 2 PV CSBK-S with 85 ppm (1 mM) or 170 ppm (2 mM) nitrate): did not affect the sulfide concentration in the effluent
sulfate reduction (SRB consortia; injection of 2 PV of 340 ppm (4 mM) nitrate): inhibition of sulfate reduction was observed
concentration that inhibited sulfate reduction / controlled souring when used singly (SRB consortia; oil as electron donor): 340 ppm

benzalkonium chloride [BAC]
metabolic activity and growth of SRB (sulfide, sulfate, lactate concentrations) (4PW SRB consortia): not effective at this low dosage

cocodiamine
metabolic activity and growth of SRB (sulfide, sulfate, lactate concentrations) (4PW SRB consortia): not effective at this low dosage

tetrakishydroxymethyl phosphonium sulfate [THPS]
metabolic activity and growth of SRB (sulfide, sulfate, lactate concentrations) (4PW SRB consortia): not effective at this low dosage
